Results reported in paper PMC5877387, “Nanoparticles engineered to bind cellular motors for efficient delivery” (Journal of Nanobiotechnology, 2018).

Tests used:
Vero cells = assay: Inhibition assays of NP transport with cytoskeleton-depolymerizing drugs; type: cell-based; conditions: Nocodazole 2.5 µM, Latrunculin A 0.1 µM; 1.5 µM NPs, 37 °C
[1] = Cytotoxicity of inhibitors, trypan blue exclusion; conditions: at working concentrations (Nocodazole 2.5 µM, Latrunculin A 0.1 µM)

SMILES | effect of drug on Au@DBP distribution, movement and spread (Vero cells) | cytotoxicity (cell death) after drug incubation [1] [%]
C/C1=C/C(=O)O[C@@H]2C[C@@H](CC[C@H](C)/C=C\C=C\CC1)O[C@@](O)([C@@H]1CSC(=O)N1)C2 [Latrunculin A] | did not stop | ≤ 10
COC(=O)Nc1nc2ccc(C(=O)c3cccs3)cc2[nH]1 [Nocodazole] | reversibly stopped | ≤ 10
